Patent publication US3974187A, “Synthetic analogs having the activity of naturally occurring forms of coenzyme Q” (priority 1975, dated 1976)

Legend:
[1] = test system: oxidative phosphorylation at site I (ETPH particles); experiment: Assay of CoQ and analogs for oxidative phosphorylation at site I with ETPH particles; format: biochemical; set-up: Δ NADH / Δ G6P: unit not given here; settings: for biochemical effectiveness in the site I assay system: compared with CoQ1
Experimental: Assays were performed with 200 μg of ETPH particles as described by
Schatz and Racker (J. Biol. Chem., 241, 1429 (1966)). The concentration o
the CoQ compounds was 0.12 mM. Rotenone was added at 2 μM

Solubility in water = format: physicochemical; settings: in the site I assay system
[2] = test system: succinoxidase system of beef heart mitochondria; experiment: CoQ activity: restoring succinoxidase activity of pentane-extracted beef heart mitochondria (manometric); format: biochemical; set-up: key to CoQ10 Act. Index: activity index relative to CoQ10 standard; settings: for Activation at 400 nMoles %: 400 nmoles of analog, relative to the response to 400 nmoles CoQ10; for Maximum Activation: 400 nm of analog per flask, percent of the response to CoQ4; for CoQ10 Act. Index: calculated from relative effectiveness, activity in terms of that of CoQ10; for Estimated nMoles Required for 50% Activation: level required to reinstate approximately 50% of maximum succinoxidase activity, 0.65-0.85 mg PEBHM; for Relative Effectiveness: molar amounts of analog and CoQ4 required to restore the same level of succinoxidase to PEBHM, relative to CoQ4; for effectiveness / utilization in the succinoxidase mitochondrial system: interpretation of Table II
Experimental: The CoQ activity of each analog was assessed by examining the ability of the analog to stimulate the succinoxidase activity of beef-heart mitochondria (BHM) from which the naturally occurring CoQ had been removed by pentane extraction. (Table I) Beef heart mitochondria were prepared by the method of Smith (Methods Enzymol., 10, 81 (1967). The pentane extraction was conducted as described by Szarkowska (Arch. Biochem. Biophys., 113, 519 (1966); PEBHM was frozen and used within 10 days of preparation, since pentane extraction decreases the stability of BHM. Succinoxidase activity was determined manometercally, using a Gilson differential respirometer (Iwamoto, Y., Hansen, I. L., Porter, T. H., and Folkers, K., Biochem. Biophys. Res. Comm., 58, 633 (1974), and is reported as […] of oxygen per minute per milligram of protein. A commercial soybean phospholipid preparation (Asolectin), dispersed by sonication (Fleischer, S. and Fleischer, B., Methods Enzymol., 10, 421 (1967), was used to provide phospholipid micelles, and test substances were added as solutions in ethanol. Within Table I are listed the CoQ activities of the analogs and selected reference compounds. The CoQ10 Activity Index is a measure of the effectiveness of the analogs, relative to the standard, in stimulating a submaximal response of succinoxidase activity. Specific activity of the succinoxidase system in response to stimulation by exogenous CoQ10 is given in footnote a of the Table. The quantity of analog to be added was chosen to provide a level of succinoxidase activity corresponding to the nearly linear portion of the activity: dose curve, in which succinoxidase activity stimulated is approximately proportional to the level of analog used. The second column lists the nanomolar quantity of analog required to provide a stimulation of about half of the maximum response. The relative response of the succinoxidase system to 400 nmol of each analog is listed in the third column of the Table. This level of analog is sufficient to insure significant excess over the stoichiometric amount, and maximum response to CoQ4 is obtained at one-tenth to one-twentieth of this dose level. The response to 400 nmol of CoQ10 is lower than is the response to other components listed. The very long side-chain of CoQ10, the natural coenzyme, may hinder the transport of exogenous CoQ10 to the active site.

periodontal disease = settings: Matsummura et al. 1973; cited from earlier work
[3] = test system: nutritionally deficient children who were anemic; settings: Majaj and Folkers 1968; cited from earlier work
complex III = complex III (Bos taurus, UniProt P00157+P13272); experiment: Reduction of cytochrome c by reduced CoQ and analogs catalyzed by complex III; format: biochemical; settings: for response of complex III system to the reduced analog as substrate: after reduction and extraction
Experimental: Reduction of cytochrome c was measured at 550-540 nm. The reaction mixtur
contained in 1.0 ml: […] KP1, pH 7.5; 0.05 mM EDTA; 8 μM
cytochrome c1; 10 μM reduced CoQ or analog and 2 μg complex
III. When indicated, antimycin A was added to the assay medium at 1
μg/ml. An extinction coefficient of 19 mM^-^1 was used for […]

Chemical stability = format: physicochemical; settings: compared with CoQ1 and CoQ2
[4] = test system: nutritionally dystrophic rabbit; settings: Farley et al. 1968; intravenous administration; cited from earlier work
[5] = human; cited from earlier work
[6] = literature / general knowledge; cited from earlier work
[7] = CoQ or analog 0.12 nM (footnote 0.12 mM)

Compound | solubility in water (Solubility in water) | Activation at 400 nMoles % [2] | Maximum Activation [2] | CoQ10 Act. Index [2] | Estimated nMoles Required for 50% Activation [2] | Relative Effectiveness [2] | response of complex III system to the reduced analog as substrate (complex III) | biochemical effectiveness in the site I assay system [1] | hematological activity [3] | effectiveness / utilization in the succinoxidase mitochondrial system [2] | therapeutic activity, saving the life of the dying dystrophic rabbit [4] | other results
COC1=C(OC)C(=O)C(C/C=C(\C)CC/C=C(\C)CC/C=C(\C)CC/C=C(\C)CC/C=C(\C)CCC=C(C)C)=C(C)C1=O [CoQ6, reference compound] | somewhat more soluble | – | – | – | – | – | – | not adequate | – | – | – | –
COC1=C(OC)C(=O)C(C/C=C(\C)CC/C=C(\C)CC/C=C(\C)CC/C=C(\C)CC/C=C(\C)CC/C=C(\C)CC/C=C(\C)CC/C=C(\C)CC/C=C(\C)CCC=C(C)C)=C(C)C1=O [CoQ10, coenzyme Q10, reference compound] | too insoluble | 100% | 78% | 1.0 | 41.7 nmol | 4.8% | – | – | showed hematological activity | poorly utilized | failed to elicit therapeutic activity | Specific Activity of the enzyme system ([2]; 10 nmoles CoQ10/flask): 0.160 μatm O2 /mg protein min; Specific Activity of the enzyme system ([2]; 20 nmoles CoQ10/flask): 0.248 μatm O2 /mg protein min; Specific Activity of the enzyme system ([2]; 30 nmoles CoQ10/flask): 0.298 μatm O2 /mg protein min; Specific Activity of the enzyme system ([2]; 40 nmoles CoQ10/flask): 0.344 μatm O2 /mg protein min; Specific Activity of the enzyme system ([2]; 100 nmoles CoQ10/flask): 0.488 μatm O2 /mg protein min; Activation at 3.46 nMoles ([2]; 3.46 (nMoles) CoQ10): no activation; oral absorption [5]: inefficient
COC1=C(OC)C(=O)C(C/C=C(\C)CC/C=C(\C)CCC=C(C)C)=C(C)C1=O [CoQ3, coenzyme Q3] | – | – | – | – | – | – | – | – | – | – | did not save the life of the dying dystrophic rabbit | chemical stability of isoprenoid quinones [6]: relative chemical instability

Further lines, with some results ahead:

solubility in water (Solubility in water) | Activation at 400 nMoles % [2] | Maximum Activation [2] | CoQ10 Act. Index [2] | Estimated nMoles Required for 50% Activation [2] | Relative Effectiveness [2] | response of complex III system to the reduced analog as substrate (complex III) | Compound | biochemical effectiveness in the site I assay system [1] | hematological activity [3] | effectiveness / utilization in the succinoxidase mitochondrial system [2] | therapeutic activity, saving the life of the dying dystrophic rabbit [4] | other results
– | 121% | 95% | 2.2 | 19.4 nmol | 10.3% | – | COC1=C(OC)C(=O)C(C/C=C(\C)CCCC(C)CCCC(C)CCCC(C)C)=C(C)C1=O (stereo not shown) [H6 CoQ4, hexahydrocoenzyme Q4, reference compound] | – | showed hematological activity | – | – | treatment of periodontal disease (periodontal disease): enhanced treatment of periodontal disease
lower solubility in water | 121% | 94% | 4.4 | 9.5 nmol | 21% | virtually unresponsive | CCCCCCCCCCCCCCCC1=C(C)C(=O)C(OC)=C(OC)C1=O [Pentadecyl, 2,3-Dimethoxy-5-methyl-6-pentadecyl-1,4-benzoquinone] | not suitable or as effective | – | – | – | inhibition of complex III system (complex III): no inhibition
– | 123% | 96% | 11.7 | 3.6 nmol | 56% | excellent substrates | CCCCCCCCCCC1=C(C)C(=O)C(OC)=C(OC)C1=O [Decyl, 2,3-Dimethoxy-5-methyl-6-decyl-1,4-benzoquinone] | as biochemically effective as CoQ1 | – | effective | – | P/NADH Ratio [1, 7]: 0.46; Δ G6P [1, 7]: 0.039; Δ NADH [1, 7]: 0.085; μmoles NADH /min/mg ([1]; CoQ or analog 0.12 nM (footnote 0.12 mM), 200 μg ETPH particles, no rotenone): 0.52 μmoles NADH /min/mg; μmoles NADH min/mg +Rotenone ([1]; CoQ or analog 0.12 nM (footnote 0.12 mM), rotenone 2 μM): 0 μmoles NADH min/mg; % Inhibition by Rotenone ([1]; rotenone 2 μM, CoQ or analog 0.12 nM (footnote 0.12 mM)): 100%; nMoles Cytochrome c Reduced/min (complex III; 10 μM reduced CoQ or analog, 2 μg complex III, 8 μM cytochrome c): 29.0 nmol/min; Non-enzymatic Rate of Cytochrome c Reduction (complex III; 10 μM reduced CoQ or analog, blank without complex III): 0.2 nmol/min; % Inhibition by Antimycin A (complex III; antimycin A 1 μg/ml): 98%; chemical stability (Chemical stability; listed as 6-n-decyl): superior to CoQ1 and CoQ2 in chemical stability; chemical stability (Chemical stability; listed as DB): apparent greater stability
